{"source": "patent US5334596A", "about": "“Fibrinogen receptor antagonists” (Merck & Co., Inc., priority 1993, dated 1994)", "data": [{"test_system": "gel-filtered human platelets", "test": "ADP-stimulated platelet aggregation (gel-filtered human platelets, fibrinogen, Ca2+)", "type": "cell-based", "details": "gel-filtered human platelets 2×10^8 per ml, fibrinogen 100 ug/ml, Ca2+ 1 mM, 10 mM ADP, 37° C., read-out: IC50 (inhibition of platelet aggregation by 50% relative to a control lacking the compound)", "experimental": "Platelet aggregation is measured at 37° C. in a Chronolog aggregometer. The reaction mixture contains gel-filtered human platelets (2×10^8 per ml), fibrinogen (100 micrograms per ml (ug/ml)), Ca^2+ (1 mM), and the compound to be tested. The aggregation is initiated by adding […] ADP 1 minute after the other components are added. The reaction is then allowed to proceed for at least 2 minutes. The extent of inhibition of aggregation is expressed as the percentage of the rate of aggregation observed in the absence of inhibitor. The IC50 is the dose of a particular compound inhibiting aggregation by 50% relative to a control lacking the compound.\nIn addition to the following preparative procedures, several examples of in-vitro bioactivity of compounds within the scope of the present invention are indicated. To illustrate, one test which is used to evaluate fibrinogen receptor antagonist activity is based on evaluation of inhibition of ADP-stimulated platelets. Aggregation requires that fibrinogen bind to and occupy the platelet fibrinogen receptor site. Inhibitors of fibrinogen binding inhibit aggregation. In the ADP-stimulated platelet aggregation assay used to determine inhibition associated with the compounds claimed in the instant invention, human platelets are isolated from fresh blood, collected into acid citrate/dextrose by differential centrifugation followed by gel filtration on Sepharose 2B in divalent ion-free Tyrode's buffer (pH 7.4) containing 2% bovine serum albumin.", "units": {"IC50": "nM"}, "values": [{"compound": "O=C(O)CCNC(=O)c1cc2c(s1)C(=O)N(CCC1CCNCC1)C2=O", "note": "[1-6, 5-(2-Carboxyethyl)carboxamide-[N-2-(4-Piperidinyl)ethyl]-2,3-thiophenedicarboximide]", "IC50": 5000}, {"compound": "CCCCS(=O)(=O)N[C@@H](CNC(=O)c1cc2c(s1)CCN(CCC1CCNCC1)C2=O)C(=O)O", "note": "[2-9, 2-[3-(2(S)-n-butylsulfonylamino)propionic acid]carboxamide-4-oxo-5-[2-(4-piperidinyl)ethyl]-4,5,6,7-tetrahydro[3,2-c]pyridine]", "IC50": 8}, {"compound": "CCCCS(=O)(=O)N[C@@H](CNC(=O)c1csc2c1C(=O)N(CCC1CCNCC1)CC2)C(=O)O", "note": "[2-11, 3-[3-(2(S)-n-Butylsulfonylamino)propionic acid]carboxamide-4-oxo-5-[2-(4-piperidinyl)ethyl]-4,5,6,7-tetrahydro[3,2-c]pyridine]", "IC50": 33000}, {"compound": "O=C(NC[C@H](NS(=O)(=O)c1ccccc1)C(=O)O)c1cc2c(s1)CCN(CCC1CCNCC1)C2=O", "note": "[2-14, 2-[3-(2(S)-Phenylsulfonylamino)propionic acid]carboxamide-4-oxo-5-[2-(4-piperidinyl)ethyl]-4,5,6,7-tetrahydro[3,2-c]pyridine]", "IC50": 8}, {"compound": "O=C(NCc1ccccc1)N[C@@H](CNC(=O)c1cc2c(s1)CCN(CCC1CCNCC1)C2=O)C(=O)O", "note": "[2-17, 2-[3-(2(S)-benzylureido)propionic acid]carboxamide-4-oxo-5-[2-(4-piperidinyl)ethyl]-4,5,6,7-tetrahydro[3,2-c]pyridine]", "IC50": 25}, {"compound": "C[C@H](CC(=O)O)NC(=O)c1cc2c(s1)CCN(CCC1CCNCC1)C2=O", "note": "[2-21, 2-[3-(3(R)-Methyl)propionic acid]carboxamide-4-oxo-5-[2-(4-piperidinyl)ethyl]-4,5,6,7-tetrahydrothieno[3,2-c]pyridine]", "IC50": 220}, {"compound": "O=C(O)CCNC(=O)c1cc2c(s1)CCN(CCC1CCNCC1)C2=O", "note": "[3-3, 2-[3-(Propionic acid)]carboxamide-4-oxo-5-[2-(piperidinyl)]ethyl-4,5,6,7-tetrahydrothieno[3,2-c]pyridine]", "IC50": 150}, {"compound": "O=C(O)CCCC(=O)c1cc2c(s1)CCN(CCC1CCNCC1)C2=O", "note": "[4-3]", "IC50": 260}]}, {"test_system": "gp IIb/IIIa complex", "test": "not given", "details": "literature, background section; cited from earlier work", "values": [{"compound": "Echistatin", "affinity for the gp IIb/IIIa complex": "high affinity"}]}, {"test_system": "cell attachment-promoting effects of fibronectin and vitronectin", "test": "not given", "details": "background section; cited from earlier work", "values": [{"compound": "arginine-glycine-aspartic acid [Arg-Gly-Asp]", "activity of the tripeptide": "low activity"}]}]}
